Laboratory results: ChEMBL document CHEMBL1201862, “PubChem BioAssay data set” (2004)
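Results reflect a 48-hour exposure of cells in 96-well plates to compound at five concentrations. GI50 = concentration required for 50% inhibition of growth.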 Calls of active or inactive are those of the source. Cut-off read from the data, not from the text of the source: active = GI50 up to about 1.1 µM and inactive = higher.

Legend:
Experiment in all cases: DTP human tumour cell line panel, 48 h
[1] = test system: MOLT-4
[2] = test system: M14
[3] = test system: SW-620
[4] = test system: A498
[5] = test system: RXF 393
[6] = test system: MCF7
[7] = test system: NCI-H522
[8] = test system: SNB-75
[9] = test system: Malme-3M
[10] = test system: HOP-92
[11] = test system: HCT-116
[12] = test system: TK-10
[13] = test system: SF-295
[14] = test system: 786-0
[15] = test system: SNB-19
[16] = test system: UACC-62
[17] = test system: OVCAR-8
[18] = test system: BT-549
[19] = test system: COLO 205
[20] = test system: SK-OV-3

Row | Compound | GI50 [1] | GI50 [2] | GI50 [3] | GI50 [4] | GI50 [5] | GI50 [6] | GI50 [7] | GI50 [8] | GI50 [9] | GI50 [10] | GI50 [11] | GI50 [12] | GI50 [13] | GI50 [14] | GI50 [15] | GI50 [16] | GI50 [17] | GI50 [18] | GI50 [19] | GI50 [20]
1 | CC1CC[C@@]2(OC1)OC1C[C@H]3[C@@H]4CC=C5C[C@@H](OC6OC(CO)C(OC7OC(CO)C(O)C(O)C7O)C(O)C6OC6OC(C)C(O)C(O)C6O)CC[C@]5(C)[C@H]4CC[C@]3(C)C1[C@@H]2C (stereo not given in full) | 0.434 µM (active) | 0.479 µM (active) | 0.624 µM (active) | 0.611 µM (active) | 0.431 µM (active) | 0.587 µM (active) | 0.998 µM (active) | 2.07 µM (inactive) | 0.634 µM (active) | 0.729 µM (active) | 0.838 µM (active) | 1.04 µM (active) | 1.94 µM (inactive) | 0.49 µM (active) | 1.2 µM (inactive) | 0.469 µM (active) | 0.659 µM (active) | 0.463 µM (active) | 0.526 µM (active) | 3.3 µM (inactive)
2 | C[C@]12CC[C@H]3[C@@H](CC=C4C[C@@H](O)CC[C@@]43C)[C@@H]1C[C@H](N1CCOCC1)[C@@H]2O | > 100 µM (inactive) | > 100 µM (inactive) | > 100 µM (inactive) | 89.3 µM (inactive) | 52.4 µM (inactive) | > 100 µM (inactive) | > 100 µM (inactive) | 28.4 µM (inactive) | > 100 µM (inactive) | > 100 µM (inactive) | > 100 µM (inactive) | > 100 µM (inactive) | > 100 µM (inactive) | 81.5 µM (inactive) | > 100 µM (inactive) | > 100 µM (inactive) | > 100 µM (inactive) | 27.9 µM (inactive) | > 100 µM (inactive) | > 100 µM (inactive)
3 | Nc1nc(N)c(CCCCc2ccc([N+](=O)[O-])cc2)c(N)n1 | 8.22 µM (inactive) | 31 µM (inactive) | > 30.5 µM (inactive) | > 100 µM (inactive) | 24.9 µM (inactive) | > 100 µM (inactive) | > 83.6 µM (inactive) | > 100 µM (inactive) | 41.9 µM (inactive) | 99.5 µM (inactive) | 3.93 µM (inactive) | > 100 µM (inactive) | 17.1 µM (inactive) | 8.67 µM (inactive) | > 100 µM (inactive) | 8.67 µM (inactive) | 22.3 µM (inactive) | > 100 µM (inactive) | > 94 µM (inactive) | > 100 µM (inactive)
4 | CC(C)(C)C1=CC(=C2C=Cc3ccccc3O2)C=C(C(C)(C)C)C1=O | 1.73 µM (inactive) | 3.55 µM (inactive) | 2.84 µM (inactive) | 4.39 µM (inactive) | 2.25 µM (inactive) | 1.86 µM (inactive) | 3.53 µM (inactive) | 5.55 µM (inactive) | 3.81 µM (inactive) | 13.9 µM (inactive) | 2.76 µM (inactive) | 3.87 µM (inactive) | 5.33 µM (inactive) | 2.67 µM (inactive) | 9.16 µM (inactive) | 2.56 µM (inactive) | 6.37 µM (inactive) | 6.59 µM (inactive) | 2.18 µM (inactive) | 13.6 µM (inactive)
5 | S=C(N/N=C(/c1ccccc1)c1ccccn1)N(Cc1ccccn1)Cc1ccccn1 | < 0.0302 µM (active) | 0.0323 µM (active) | < 0.0277 µM (active) | 0.521 µM (active) | 1 µM (active) | < 0.01 µM (active) | < 0.0247 µM (active) | 0.708 µM (active) | 0.0655 µM (active) | 0.174 µM (active) | < 0.01 µM (active) | 0.236 µM (active) | 0.367 µM (active) | 0.475 µM (active) | 0.444 µM (active) | 0.338 µM (active) | < 0.01 µM (active) | 0.207 µM (active) | < 0.0157 µM (active) | 0.472 µM (active)
6 | CC1(C)COCN1COC1CCCCC1 | 24.1 µM (inactive) | > 100 µM (inactive) | > 100 µM (inactive) | > 100 µM (inactive) | > 100 µM (inactive) | > 100 µM (inactive) | > 100 µM (inactive) | 5.08 µM (inactive) | > 100 µM (inactive) | > 100 µM (inactive) | > 100 µM (inactive) | > 100 µM (inactive) | > 100 µM (inactive) | > 100 µM (inactive) | > 100 µM (inactive) | > 100 µM (inactive) | > 100 µM (inactive) | > 100 µM (inactive) | > 100 µM (inactive) | > 100 µM (inactive)
7 | CCCCCCCCCCOCCOCCOCCOCCCCC(O)CCCCCCCC1=C[C@H](C)OC1=O (stereo not given in full) | 2.83 µM (inactive) | 14.3 µM (inactive) | 12.1 µM (inactive) | 13.6 µM (inactive) | 10.9 µM (inactive) | 5.62 µM (inactive) | 6.34 µM (inactive) | 11.8 µM (inactive) | 19.6 µM (inactive) | 14.2 µM (inactive) | 9.53 µM (inactive) | 10.2 µM (inactive) | 9.89 µM (inactive) | 18.6 µM (inactive) | 13.8 µM (inactive) | 13.2 µM (inactive) | 13.4 µM (inactive) | 0.959 µM (active) | 15.2 µM (inactive) | 16.5 µM (inactive)
